Square brackets hold non-standard residues; d marks the D form. Primed or numbered codes have the meaning given here. Ends that are not written are not given here. CPQ2(3) = quencher on Lys side chain; FAM = fluorescent reporter; PEG2″ = PEG2 spacer; CPQ2 = quencher
Tests used:
[1] = system: cathepsin and/or MMP protease activities; assay: Ex vivo probe cleavage in plasma of healthy, NASH regression and NASH progression mice; format: biochemical; conditions: K2EDTA plasma collected at 20 weeks
Excerpt: Plasma samples were collected from all animals at 20 weeks.
The probes showing the most differentiation in NASH were linked to cathepsin and/or MMP protease activities.

[2] = system: proteases in NASH and healthy plasma cleaving Probe #102; assay: Inhibitor profiling of Probe #102 cleavage in NASH and healthy plasma; format: biochemical, mice
Description: For this experiment, all plasma samples were prepared individually and diluted 1/10e in PBS with inhibitor added directly to the samples. Inhibitor was prepared at 15× concentration to final. Substrates were diluted in DI water at 18 uM, such that the final concentration on the plate would be 6 uM. All samples were prepared such that their last dilution on the plate would not affect the desired final concentration. 10 ul of each individual sample was pipetted into their corresponding wells, and the plate was then spun down in the centrifuge at 1500 RPM for 30 seconds to coat the bottom of each well with the sample. 5 ul of the 18 uM substrate solution was pipetted into each well being used on a 384 well plate, and then the plate was spun down in the centrifuge at 1500 rpm for 30 seconds. The plate was placed immediately in the plate reader at 37° C. for a 30-minute-long fluorescence kinetic read at 485/535 extended gain.
To assess the proteolytic cleavage pattern of Probe #102, samples were tested using a pool of broad inhibitors for serine, cysteine, threonine, MMP and aspartic protease family members (broad inhibitor) to assess general protease activity, AEBSF for serine proteases, E64 for cysteine proteases, CTSi for broad cathepsin inhibition of cathepsins L, S, K and B, or specific inhibitors for cathepsin K (L00625), for cathepsin L (SID) or cathepsin B (CA074).

[3] = system: COVID-related proteases; assay: Ex vivo probe cleavage in COVID vs healthy K2EDTA and Lithium Heparin plasma; format: biochemical
[4] = system: caspase activity in hepatitis; assay: Ex vivo probe cleavage in plasma of Jo2 fulminant hepatitis mice; format: biochemical; conditions: mouse plasma 3 hours after Jo2 injection vs healthy
Description: Fulminant hepatitis is induced after injection intraperitoneal of monoclonal antibody anti-CD95 (Jo2, BD biosciences, 4 ug/animal), and mouse plasma samples were collected 3 hours after Jo2 injection.

[5] = cited from earlier work
[6] = both K2EDTA and Lithium Heparin plasma sets

Probe #428: probe of Table 1 ({FAM}-GDRRKKLTQGK(CPQ2(3))[PEG2″][dK][dK]GC; not fully specified; printed as (FAM)-GDRRKKLTQG-K(CPQ2)-(PEG2)-DLys-DLys-GC)
differentiation among healthy, regression and NASH samples [1]: can differentiate

CC(C)C[C@H](NC(=O)[C@H]1O[C@@H]1C(=O)O)C(=O)NCCCCN=C(N)N [Probe E64, E64]
effect on NASH signal ([2]; NASH plasma, Probe #102, less decrease in signal for healthy): decreased NASH signal significantly

Probe #96: probe of Table 1 ({FAM}-GRPLALWESQGK(CPQ2)[PEG2″][dK]GC; not fully specified; printed as (FAM)-GRPLALWESQG-K(CPQ2)-PEG2-k-GC; also: FAM, position not given here)
differentiation among healthy, regression and NASH samples [1]: can differentiate

Probe #520: probe of Table 1 (GKPISLISSGK; not fully specified; 5FAM, CPQ2 quencher, PEG2; MOD_RES (11)..(11) Lys modified with a CPQ2 quencher)
differentiation among healthy, regression and NASH samples [1]: can differentiate

Probe #409: the SARS CoV2 coronavirus substrate (SARS-COV2 3C protease) (GTSAVLQSGFRKGK(CPQ2); not fully specified (N-terminus, C-terminus); also: 5-FAM (place not given here), PEG2-kk-GC (place not given here))
differential cleavage between COVID and healthy samples ([3]; K2 EDTA samples): modest contrast

Probe #492: probe of Table 1 ({FAM}-GQRANSIRVTWGK(CPQ2(3))[PEG2″][dK][dK]GC; not fully specified; printed as (FAM)-GQRANSIRVTWG-K(CPQ2)-(PEG2)-DLys-DLys-GC)
differentiation among healthy, regression and NASH samples [1]: can differentiate

CCCNC(=O)[C@H]1O[C@@H]1C(=O)N[C@H](C(=O)N1CCC[C@H]1C(=O)O)[C@@H](C)CC [CA074]
effect on signal for NASH or healthy samples ([2]; Probe #102): did not significantly decrease signal

Probe #12: Caspase centric probe (GDEVDGK; not fully specified; 5-FAM, CPQ2 quencher, PEG2; MOD_RES (7)..(7) Lys modified with a CPQ2 quencher)
contrast in Jo2 hepatitis model [4]: show contrast that is specific and sensitive to the Jo2 model

O=c1[nH]c(-c2ccccc2O)nc2ccccc12 [HPQ, 2-(2″-hydroxyphenyl)-4(3H)-quinazolinone]
solubility in water [5]: strictly insoluble in water

Probe #8: Caspase centric probe (GVDVADGK; not fully specified; 5-FAM, CPQ2 quencher, PEG2; MOD_RES (8)..(8) Lys modified with a CPQ2 quencher)
contrast in Jo2 hepatitis model [4]: show contrast that is specific and sensitive to the Jo2 model

CN1CCN(c2nc(-c3ccc(C(=O)NC4(C(=O)NCC#N)CCCCC4)cc3)cs2)CC1 [Probe L006235]
effect on signal for NASH or healthy samples ([2]; Probe #102): did not significantly decrease signal

Probe #84: a Furin substrate (GRVKRGLAGK(CPQ2); not fully specified (N-terminus, C-terminus); also: 5-FAM (place not given here), PEG2-kk-GC (place not given here))
differential cleavage between COVID and healthy samples [3, 6]: demonstrated contrast in both sets

Probe #102: a CTSL sensing probe; sequence in Table 1 ({FAM}-GKPILFFRLKGK(CPQ2(3))[PEG2″][dK][dK]GC; not fully specified; printed as (FAM)-GKPILFFRLKG-K(CPQ2)-PEG2-kk-GC)
protease to which the probe responds ([2]; individual cathepsin inhibitors, FIG. 30D-F): specifically responds to the activity of cathepsin L (CTSL)
differentiation among healthy, regression and NASH samples [1]: can differentiate

O=c1nc(-c2cc(C(=C(c3ccccc3)c3ccccc3)c3ccccc3)ccc2O)[nH]c2ccc(Cl)cc12 [HTPQ]
solubility in water [5]: strictly insoluble in water

Probe #18: a Neutrophil elastase substrate (GAAPVGK(CPQ2); not fully specified (N-terminus, C-terminus); also: 5-FAM (place not given here), PEG2-kk-GC (place not given here))
differential cleavage between COVID and healthy samples [3, 6]: demonstrated contrast in both sets

Probe #462: a MMP8 substrate (GKKAKRNALGK(CPQ2); not fully specified (N-terminus, C-terminus); also: FAM (place not given here), PEG2, DLys-DLys-GC (place not given here))
differential cleavage between COVID and healthy samples [3, 6]: demonstrated contrast in both sets

NCCc1ccc(S(=O)(=O)F)cc1 [AEBSF]
decrease of NASH signal ([2]; NASH plasma, Probe #102): 65%
decrease of healthy signal ([2]; healthy plasma, Probe #102): 60%

Reference: patent US11851697B2, “Ex vivo protease activity detection for disease detection/diagnostic, staging, monitoring and treatment” (Glympse Bio, Inc., priority 2020, dated 2023)
